According to patent US20110224197A1, “PYRIMIDINES AND PYRIDINES USEFUL AS INHIBITORS OF PROTEIN KINASES” (Vertex Pharmaceuticals Incorporated, priority 2008, published 2011):

How the values were obtained:
[1] = system: 5-FU treated C57BL/6 mice; experiment: Leukocytopenia animal model (5-FU); assay type: in vivo
Excerpt: This study evaluates the hematopoietic recovery of peripheral blood and bone marrow cells following treatment with 5-FU (a myeloablative reagent) and compares the recoveries of various doses of the test compound with a cytokine known to enhance recovery rhG-CSF. The introduction of the chemotherapeutic agent causes a decrease in the peripheral blood white blood cell count and in particular, the neutrophil count. […] 5-FU acts by killing all the dividing cells, sparing primitive stem cells which are relatively quiescent and are thus not impacted by the treatment. Following treatment, primitive cells are recruited to proliferate and differentiate, thus re-establishing normal peripheral blood and femoral cell counts. This model may be used to evaluate compounds that could facilitate the recruitment and proliferation of the primitive cells and assess the kinetics of recovery of bone marrow as well as mature cell populations (white blood cells, red blood cells and platelets) in the blood.
One hundred and five C57BL/6 mice at 6-8 weeks of age were purchased from Jackson Labs. All, with the exception of the 4 untreated control mice were treated with 150 mg/kg 5-Fluorouracil (5-FU) interperitoneal (ip) at day 0. The four untreated mice (Group 1) were sacrificed on day 12 and they represent the “normal variability in blood and cell counts”. The 5-FU treated mice were divided equally into 4 distinct groups (Groups 2, 3, 4 and 5). On day −1 (the day before treatment with 5-FU) through to day 12, the mice in group 2 were treated at 8 a.m. and 6 p.m. with just solvent (20% PEG 400/10% Vitamin E TPGS/70% water) and served as the solvent control for groups 4 and 5.
Four mice from this group were sacrificed on days 4, 6, 8, 10 and 12 following the final dose of solvent the morning before sacrificing. On days 1 through 4, the mice in group three were dosed with 50 ug/kg rhG-CSF twice daily with 6 hours separating the daily doses. Four mice from this group were also sacrificed on days 4, 6, 8, 10 and 12. For treatment of test compound, groups 4 and 5, dosing was done as indicated above with the solvent control (2 times daily at 8 am and 6 pm) with compound that was prepared fresh each day.
Compound I-3 was weighed out into 13 vials and an appropriate amount of solvent added to achieve a final concentration for dosing at 30 mg/Kg (high dose). The compound was solubilized by sonication in solvent for 2-3 minutes and then 30% of the volume removed and diluted 1:3 with solvent to prepare compound for dosing at 10 mg/Kg (low dose). This was done daily and delivered to the animal technologist at 1 pm for the evening and next morning dosing. The unused compound was returned and frozen the next day when the freshly prepared sample for the next doses delivered. On days 1 through 12, mice in group 4 received the low dose of compound ([…]) and mice in group 5 received the high dose of compound (30 mg/Kg) twice daily. Four mice were sacrificed for each group on days 4, 6, 8, 10 and 12.
Each time mice were sacrificed from any of the groups, peripheral blood was collected in EDTA microtainer tubes by cardiac puncture. Approximately 400 uL of the blood was sent for analysis of blood indices (WBC, ANC, platelets, hemoglobin and hematocrit) at a central veterinary service laboratory using an automated system. The remainder of the blood was sent to STI where the plasma was separated by centrifugation at 8000 r.p.m. for 10 minutes and stored at −80° C. for future bioassays. Both femurs were also harvested and cells extracted and processed. The femoral cells were counted, red blood cells lysed and the cells subsequently prepared (at 5×10^6 cells/100 uL in Laemmli buffer and an equivalent unprocessed cell pellet) and stored at −80° C. for future protein analyses. Also on day 12, when the animals were sacrificed, their livers were removed and stored in 10% neutral formalin for future analysis. […]

[2] = system: GSK-3α/β pTYR; experiment: Biomarker for leukocytopenia: pTYR in PBMC (Western blot); assay type: in vivo, mice; conditions: all doses
Experimental: To track the activity of Compound (I-3) in mice subjected to 5-FU treatment, peripheral blood was removed at time of sacrifice from both compound and vehicle-treated mice and a protein lysate was obtained from peripheral blood mononuclear cells (PBMC) after removal of red blood cells. Lysates were analyzed by Western blot and probed for GSK-3α/β pTYR levels.

[3] = system: β-catenin; experiment: Biomarker for leukocytopenia: β-catenin in PBMC; assay type: in vivo, mice; conditions: all doses
[4] = system: embolic occlusion of the middle cerebral artery (MCAO) in the rat; experiment: Post Stroke Recovery Model I (embolic MCAO); assay type: in vivo
Experimental: This study investigates the effect of compounds on volume of cerebral infarction, cell proliferation, and functional recovery after embolic occlusion of the middle cerebral artery (MCAO) in the rat.
Ten Rats, subjected to MCAO (Zhang R L, et. al., 1997 # 1), were randomly assigned to either Vehicle or Compound I-3 after MCAO. The treatment was administered once daily orally starting 24 hours after MCAo for 14 days. 5-bromo-2-deoxyuridine (BrdU, Sigma; 100 mg/kg, i.p.) is administered at 1 day after MCAO, and consecutively for 6 days. Functional assessments are performed before MCAO and at day 1, day 7 and day 14 after MCAO by an investigator who is blinded to the study. The assessment included Neurological Severity Score (mNSS) and Adhesive removal test score, described below. A total of twenty rats are sacrificed at 14 days after MCAO. Three contralateral hemispheres of each group are assigned for analysis. Volume of infarction and cell proliferation in the ipsilateral subventricular zone (SVZ) are measured.
Rats are tested for left forelimb somatosensory deficit with the adhesive removal test (Schallert T, et. al., 1984 # 3). Each animal received 3 trials by placing round strips of packing tape (1.2 cm in diameter) at each testing day and the mean time (seconds) required to remove stimuli from the left forelimb is was recorded.
All the animals are anesthetized with ketamine (44 mg/kg IM) and xylazine (13 mg/kg IM) and sacrificed at fourteen days after MCA occlusion. […] Infarct volumes are measured using a Global Lab Image analysis program (Data Translation). The area of both hemispheres and the area containing the ischemic neuronal damage (mm^2) are calculated by tracing the area on the computer screen. The lesion volume […] is determined by multiplying the appropriate area by the section interval thickness (Chen H, et al., 1992, # 4). […]
To visualize specificity of the immunohischemical reaction, immunostaining of BrdU (a monoclonal antibody against BrdU, 1:100, DAK) is employed. […] BrdU-immunoreactive nuclei in the SVZ are counted on a computer monitor to improve visualization. […]

[5] = system: GSK-3 α/β pTYR; experiment: pTYR biomarker analysis in brain, Post Stroke Model I; assay type: in vivo, rat; conditions: all doses, termination of study
Experimental: To track the activity of Compound I-3 in the CNS of rats subjected to MCAO, brains were removed and protein lysate was obtained as described above from both vehicle treated and compound treated animals at the termination of the study. Lysates were analyzed by Western blot and probed for GSK-3 α/β pTYR levels.

[6] = system: β-catenin; experiment: β-catenin in brain, Post Stroke Model I; assay type: in vivo, rat; conditions: all doses
[7] = system: transient middle cerebral artery occlusion (MCAO) in rats; conditions: after transient MCAO; cited from earlier work
[8] = once daily orally starting 24 hours after MCAo for 14 days

## Cc1nc(-c2ccccc2Cl)nc(Nc2n[nH]c3ccc(F)cc23)c1C [Compound I-3]
[1]; 5-FU + Compound I-3 10 mg/Kg twice daily
  WBC nadir (lowest cell count observed): 4 days
[1]; 5-FU + Compound I-3 30 mg/Kg twice daily
  WBC nadir (lowest cell count observed): 4 days
[1]; 5-FU + high dose (30 mg/Kg twice daily)
  kinetics of the WBC and ANC recovery: enhanced
[1]; 5-FU + high dose of test compound
  Bone marrow cellularity: recovery to normal values: 10 days
[1]; 5-FU and high dose, day 8
  bone marrow cell counts versus 5-FU and rhG-CSF: significantly higher
[1]; 5-FU and high dose, versus other groups
  bone marrow cellularity nadir: did not have as low a nadir as other groups
[1]; 5FU + high dose, day 8
  Platelet counts: soared above the reference ranges
[1]; Group 5 (high dose) versus Groups 3 and 4
  kinetics of bone marrow cellular recovery: fastest
[1]; high dose
  WBC and ANC recovery compared to 5-FU and rhG-CSF: comparable
[1]; high dose, days 8 and 10
  WBC and ANC recovery compared to 5-FU and solvent control: significantly increased
[2]
  pTYR signal compared to vehicle treated animals: significant reduction
[3]
  induction of β-catenin: no induction
[4]; 14 days after MCAO
  number of BrdU positive cells in the ipsilateral SVZ compared with vehicles: significantly (p<0.05) increased
[4]; [8]
  adhesive removal test compared with vehicle group: significant (p<0.05) improvement
  mNSS test compared with vehicle group: significant (p<0.05) improvement
[5]
  pTYR signal compared to vehicle treated rats: significant reduction
[6]
  induction of β-catenin: no induction

## IGF-1: insulin growth factor-1, a known GSK-3 inhibitor
[7]
  infarct size in rat brains: reduced infarct size

B1: rhG-CSF: recombinant human granulocyte colony stimulating factor; a cytokine known to enhance recovery (protein, UniProt P09919 31-207, looked up)
Granulocyte …: TPLGPASSLPQSFLLKCLEQVRKIQGDGAALQEKLVSECATYKLCHPEELVLLGHSLGIPWAPLSSCPSQALQLAGCLSQLHSGLFLYQGLLQALEGISPELGPTLDTLQLDVADFATTIWQQMEELGMAPALQPTQGAMPAFASAFQRRAGGVLVASHLQSFLEVSYRVLRHLAQP
[1]; 5-FU + rhG-CSF 50 ug/kg twice daily
  ANC nadir: 4 days
[1]; 5-FU + rhG-CSF 50 ug/kg twice daily, days 1 through 4
  WBC nadir (lowest cell count observed): 4 days
[1]; 5-FU + rhG-CSF, day 8
  Platelet counts: soared above the reference ranges
[1]; 5-FU + rhG-CSF, days 4 and 6
  actual neutrophil counts (ANC): almost non-detectable levels
